In ChEMBL document CHEMBL2375249, “Synthesis and biological evaluation of novel pyrrolidine-2,5-dione derivatives as potential antidepressant agents. Part 1” (Eur J Med Chem, 2013):
The source made the active and inactive calls. No cut-off for these calls is given here.

system: Mus musculus; test: Antidepressant activity in CD1 mouse assessed as reduction in immobility time at 2.5 to 5 mg/kg, ip measured during final 4 mins in 6 mins test session after 2 mins habituation period by forced swimming test; type: functional, organism-based

Compound	Activity
O=C1CC(c2c[nH]c3ccccc23)C(=O)N1CCCCN1CC=C(c2c[nH]c3ccc(F)cc23)CC1 (racemic)	inactive
COc1ccc2[nH]cc(C3=CCN(CCCCN4C(=O)CC(c5c[nH]c6ccccc56)C4=O)CC3)c2c1 (racemic)	inactive

system: Mus musculus; test: Antidepressant activity in CD1 mouse assessed as reduction in immobility time at 1 to 2 mg/kg, sc measured during final 4 mins in 6 mins test session after 2 mins habituation period by forced swimming test; type: functional, organism-based

Compound	Activity
CCCN(CCC)C1CCc2cccc(O)c2C1 (configuration not stated)	Active

system: Mus musculus; test: Induction of hypothermia in CD1 mouse assessed as change in rectal body temperature at 5 mg/kg, ip administered 30 mins prior to test measured after 60 mins in presence of WAY 100635 relative to control; type: functional, organism-based; design: dose 5 mg/kg

Compound	deltaT
O=C1CC(c2c[nH]c3ccccc23)C(=O)N1CCCCN1CC=C(c2c[nH]c3ccccc23)CC1 (racemic)	-1.2 °C
O=C1CC(c2c[nH]c3ccccc23)C(=O)N1CCCCN1CC=C(c2c[nH]c3ccc(F)cc23)CC1 (racemic)	-0.2 °C
COc1ccc2[nH]cc(C3=CCN(CCCCN4C(=O)CC(c5c[nH]c6ccccc56)C4=O)CC3)c2c1 (racemic)	-0.3 °C

system: Mus musculus; test: Induction of hypothermia in CD1 mouse assessed as change in rectal body temperature at 5 mg/kg, ip administered 30 mins prior to test measured after 30 mins in presence of WAY 100635 relative to control; type: functional, organism-based; design: dose 5 mg/kg

Compound	deltaT
O=C1CC(c2c[nH]c3ccccc23)C(=O)N1CCCCN1CC=C(c2c[nH]c3ccccc23)CC1 (racemic)	-1.2 °C
O=C1CC(c2c[nH]c3ccccc23)C(=O)N1CCCCN1CC=C(c2c[nH]c3ccc(F)cc23)CC1 (racemic)	-0.5 °C
COc1ccc2[nH]cc(C3=CCN(CCCCN4C(=O)CC(c5c[nH]c6ccccc56)C4=O)CC3)c2c1 (racemic)	-0.4 °C

system: Mus musculus; test: Induction of hypothermia in CD1 mouse assessed as change in rectal body temperature at 2.5 mg/kg, ip administered 30 mins prior to test measured after 60 mins in presence of WAY 100635 relative to control; type: functional, organism-based; design: dose 2.5 mg/kg

Compound	deltaT
O=C1CC(c2c[nH]c3ccccc23)C(=O)N1CCCCN1CCC(c2c[nH]c3ccccc23)CC1 (racemic)	-1.1 °C

system: Mus musculus; test: Induction of hypothermia in CD1 mouse assessed as change in rectal body temperature at 2.5 mg/kg, ip administered 30 mins prior to test measured after 30 mins in presence of WAY 100635 relative to control; type: functional, organism-based; design: dose 2.5 mg/kg

Compound	deltaT
O=C1CC(c2c[nH]c3ccccc23)C(=O)N1CCCCN1CCC(c2c[nH]c3ccccc23)CC1 (racemic)	-1 °C

system: Mus musculus; test: Induction of hypothermia in CD1 mouse assessed as change in rectal body temperature at 5 mg/kg, ip administered 30 mins prior to test measured after 120 mins relative to control; type: functional, organism-based; design: dose 5 mg/kg

Compound	deltaT
O=C1CC(c2c[nH]c3ccccc23)C(=O)N1CCCCN1CC=C(c2c[nH]c3ccccc23)CC1 (racemic)	-1.4 °C
O=C1CC(c2c[nH]c3ccccc23)C(=O)N1CCCCN1CC=C(c2c[nH]c3ccc(F)cc23)CC1 (racemic)	-1.2 °C
COc1ccc2[nH]cc(C3=CCN(CCCCN4C(=O)CC(c5c[nH]c6ccccc56)C4=O)CC3)c2c1 (racemic)	-0.9 °C
O=C1CC(c2c[nH]c3ccccc23)C(=O)N1CCCCN1CCC(c2c[nH]c3ccccc23)CC1 (racemic)	-2.1 °C

system: Mus musculus; test: Induction of hypothermia in CD1 mouse assessed as change in rectal body temperature at 5 mg/kg, ip administered 30 mins prior to test measured after 90 mins relative to control; type: functional, organism-based; design: dose 5 mg/kg

Compound	deltaT
O=C1CC(c2c[nH]c3ccccc23)C(=O)N1CCCCN1CC=C(c2c[nH]c3ccccc23)CC1 (racemic)	-1.5 °C
O=C1CC(c2c[nH]c3ccccc23)C(=O)N1CCCCN1CC=C(c2c[nH]c3ccc(F)cc23)CC1 (racemic)	-1.3 °C
COc1ccc2[nH]cc(C3=CCN(CCCCN4C(=O)CC(c5c[nH]c6ccccc56)C4=O)CC3)c2c1 (racemic)	-1.1 °C
O=C1CC(c2c[nH]c3ccccc23)C(=O)N1CCCCN1CCC(c2c[nH]c3ccccc23)CC1 (racemic)	-2.1 °C

system: Mus musculus; test: Induction of hypothermia in CD1 mouse assessed as change in rectal body temperature at 5 mg/kg, ip administered 30 mins prior to test measured after 60 mins relative to control; type: functional, organism-based; design: dose 5 mg/kg

Compound	deltaT
O=C1CC(c2c[nH]c3ccccc23)C(=O)N1CCCCN1CC=C(c2c[nH]c3ccccc23)CC1 (racemic)	-1.4 °C
O=C1CC(c2c[nH]c3ccccc23)C(=O)N1CCCCN1CC=C(c2c[nH]c3ccc(F)cc23)CC1 (racemic)	-1.5 °C
COc1ccc2[nH]cc(C3=CCN(CCCCN4C(=O)CC(c5c[nH]c6ccccc56)C4=O)CC3)c2c1 (racemic)	-1.1 °C
O=C1CC(c2c[nH]c3ccccc23)C(=O)N1CCCCN1CCC(c2c[nH]c3ccccc23)CC1 (racemic)	-2.8 °C

system: Mus musculus; test: Induction of hypothermia in CD1 mouse assessed as change in rectal body temperature at 5 mg/kg, ip administered 30 mins prior to test measured after 30 mins relative to control; type: functional, organism-based; design: dose 5 mg/kg

Compound	deltaT
O=C1CC(c2c[nH]c3ccccc23)C(=O)N1CCCCN1CC=C(c2c[nH]c3ccccc23)CC1 (racemic)	-1.5 °C
O=C1CC(c2c[nH]c3ccccc23)C(=O)N1CCCCN1CC=C(c2c[nH]c3ccc(F)cc23)CC1 (racemic)	-1.6 °C
COc1ccc2[nH]cc(C3=CCN(CCCCN4C(=O)CC(c5c[nH]c6ccccc56)C4=O)CC3)c2c1 (racemic)	-1.1 °C
O=C1CC(c2c[nH]c3ccccc23)C(=O)N1CCCCN1CCC(c2c[nH]c3ccccc23)CC1 (racemic)	-2.4 °C

system: Mus musculus; test: Induction of hypothermia in CD1 mouse assessed as change in rectal body temperature at 2.5 mg/kg, ip administered 30 mins prior to test measured after 120 mins relative to control; type: functional, organism-based; design: dose 2.5 mg/kg

Compound	deltaT
O=C1CC(c2c[nH]c3ccccc23)C(=O)N1CCCCN1CC=C(c2c[nH]c3ccccc23)CC1 (racemic)	-0.9 °C
O=C1CC(c2c[nH]c3ccccc23)C(=O)N1CCCCN1CC=C(c2c[nH]c3ccc(F)cc23)CC1 (racemic)	-0.7 °C
COc1ccc2[nH]cc(C3=CCN(CCCCN4C(=O)CC(c5c[nH]c6ccccc56)C4=O)CC3)c2c1 (racemic)	-0.4 °C
O=C1CC(c2c[nH]c3ccccc23)C(=O)N1CCCCN1CCC(c2c[nH]c3ccccc23)CC1 (racemic)	-1.2 °C

system: Mus musculus; test: Induction of hypothermia in CD1 mouse assessed as change in rectal body temperature at 2.5 mg/kg, ip administered 30 mins prior to test measured after 90 mins relative to control; type: functional, organism-based; design: dose 2.5 mg/kg

Compound	deltaT
O=C1CC(c2c[nH]c3ccccc23)C(=O)N1CCCCN1CC=C(c2c[nH]c3ccccc23)CC1 (racemic)	-0.9 °C
O=C1CC(c2c[nH]c3ccccc23)C(=O)N1CCCCN1CC=C(c2c[nH]c3ccc(F)cc23)CC1 (racemic)	-0.7 °C
COc1ccc2[nH]cc(C3=CCN(CCCCN4C(=O)CC(c5c[nH]c6ccccc56)C4=O)CC3)c2c1 (racemic)	-0.7 °C
O=C1CC(c2c[nH]c3ccccc23)C(=O)N1CCCCN1CCC(c2c[nH]c3ccccc23)CC1 (racemic)	-1.3 °C

system: Mus musculus; test: Induction of hypothermia in CD1 mouse assessed as change in rectal body temperature at 2.5 mg/kg, ip administered 30 mins prior to test measured after 60 mins relative to control; type: functional, organism-based; design: dose 2.5 mg/kg

Compound	deltaT
O=C1CC(c2c[nH]c3ccccc23)C(=O)N1CCCCN1CC=C(c2c[nH]c3ccccc23)CC1 (racemic)	-0.6 °C
O=C1CC(c2c[nH]c3ccccc23)C(=O)N1CCCCN1CC=C(c2c[nH]c3ccc(F)cc23)CC1 (racemic)	-0.7 °C
COc1ccc2[nH]cc(C3=CCN(CCCCN4C(=O)CC(c5c[nH]c6ccccc56)C4=O)CC3)c2c1 (racemic)	-0.5 °C
O=C1CC(c2c[nH]c3ccccc23)C(=O)N1CCCCN1CCC(c2c[nH]c3ccccc23)CC1 (racemic)	-1.5 °C

system: Mus musculus; test: Induction of hypothermia in CD1 mouse assessed as change in rectal body temperature at 2.5 mg/kg, ip administered 30 mins prior to test measured after 30 mins relative to control; type: functional, organism-based; design: dose 2.5 mg/kg

Compound	deltaT
O=C1CC(c2c[nH]c3ccccc23)C(=O)N1CCCCN1CC=C(c2c[nH]c3ccccc23)CC1 (racemic)	-0.7 °C
O=C1CC(c2c[nH]c3ccccc23)C(=O)N1CCCCN1CC=C(c2c[nH]c3ccc(F)cc23)CC1 (racemic)	-0.6 °C
COc1ccc2[nH]cc(C3=CCN(CCCCN4C(=O)CC(c5c[nH]c6ccccc56)C4=O)CC3)c2c1 (racemic)	-0.5 °C
O=C1CC(c2c[nH]c3ccccc23)C(=O)N1CCCCN1CCC(c2c[nH]c3ccccc23)CC1 (racemic)	-1.3 °C

target: 5-hydroxytryptamine receptor 7 (Homo sapiens, UniProt P34969); test: Displacement of [3H]-5CT from human 5HT7 receptor expressed in HEK293 cells after 1 hr; type: cell-based
Sequence (P34969 whole entry): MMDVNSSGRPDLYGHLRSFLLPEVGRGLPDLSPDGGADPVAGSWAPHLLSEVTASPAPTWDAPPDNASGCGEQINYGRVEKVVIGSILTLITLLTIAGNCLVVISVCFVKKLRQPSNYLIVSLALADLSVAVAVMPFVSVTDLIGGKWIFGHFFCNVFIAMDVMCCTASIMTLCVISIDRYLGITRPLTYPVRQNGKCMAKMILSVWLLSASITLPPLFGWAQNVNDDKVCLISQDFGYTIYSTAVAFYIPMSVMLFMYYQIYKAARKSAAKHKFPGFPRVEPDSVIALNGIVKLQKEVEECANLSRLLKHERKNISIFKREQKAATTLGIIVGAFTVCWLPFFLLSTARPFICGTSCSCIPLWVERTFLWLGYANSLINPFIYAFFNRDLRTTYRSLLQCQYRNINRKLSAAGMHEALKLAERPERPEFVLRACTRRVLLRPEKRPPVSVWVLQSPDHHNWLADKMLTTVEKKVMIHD

Compound	Ki
COc1ccc2[nH]cc(C3CCN(CCCN4C(=O)CC(c5c[nH]c6ccccc56)C4=O)CC3)c2c1 (racemic)	589 nM

target: 5-hydroxytryptamine receptor 6 (Homo sapiens, UniProt P50406); test: Displacement of [3H]-LSD from human 5HT6 receptor expressed in HEK293 cells after 1 hr; type: cell-based
Sequence (P50406 whole entry): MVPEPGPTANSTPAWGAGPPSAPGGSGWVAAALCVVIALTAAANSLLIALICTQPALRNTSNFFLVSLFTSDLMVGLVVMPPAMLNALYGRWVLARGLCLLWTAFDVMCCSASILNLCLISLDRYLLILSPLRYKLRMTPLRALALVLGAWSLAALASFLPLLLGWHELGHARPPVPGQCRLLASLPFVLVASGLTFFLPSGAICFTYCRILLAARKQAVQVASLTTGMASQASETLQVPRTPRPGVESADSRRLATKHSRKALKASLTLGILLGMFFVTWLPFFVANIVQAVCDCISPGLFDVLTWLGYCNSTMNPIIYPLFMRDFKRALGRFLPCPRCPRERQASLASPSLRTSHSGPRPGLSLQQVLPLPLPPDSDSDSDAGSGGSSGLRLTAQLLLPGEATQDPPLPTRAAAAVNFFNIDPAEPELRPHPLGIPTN

Compound	Ki
COc1ccc2[nH]cc(C3CCN(CCCN4C(=O)CC(c5c[nH]c6ccccc56)C4=O)CC3)c2c1 (racemic)	264 nM

target: D(2) dopamine receptor (Homo sapiens, UniProt P14416); test: Displacement of [3H]-raclopride from human dopamine D2L receptor expressed in HEK293 cells after 1 hr; type: cell-based
Sequence (P14416 whole entry): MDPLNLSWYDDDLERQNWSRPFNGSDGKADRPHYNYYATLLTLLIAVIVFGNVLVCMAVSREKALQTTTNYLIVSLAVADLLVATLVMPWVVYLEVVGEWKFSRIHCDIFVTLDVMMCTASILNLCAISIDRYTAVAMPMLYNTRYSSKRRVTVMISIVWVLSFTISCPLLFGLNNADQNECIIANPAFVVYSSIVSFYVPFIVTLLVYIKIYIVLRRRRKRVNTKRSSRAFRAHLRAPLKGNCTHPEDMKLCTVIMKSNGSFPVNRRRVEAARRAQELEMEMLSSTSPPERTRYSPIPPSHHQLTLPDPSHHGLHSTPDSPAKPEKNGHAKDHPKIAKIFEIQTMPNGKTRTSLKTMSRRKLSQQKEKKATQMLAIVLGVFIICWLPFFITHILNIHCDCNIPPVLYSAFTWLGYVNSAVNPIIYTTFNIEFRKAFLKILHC

Compound	Ki
COc1ccc2[nH]cc(C3CCN(CCCN4C(=O)CC(c5c[nH]c6ccccc56)C4=O)CC3)c2c1 (racemic)	343 nM

target: 5-hydroxytryptamine receptor 2A (Rattus norvegicus, UniProt P14842); test: Displacement of [3H]-ketanserin from 5HT2A in rat cerebral cortex 20 mins by liquid scintillation counting analysis; type: tissue-based
Sequence (P14842 whole entry): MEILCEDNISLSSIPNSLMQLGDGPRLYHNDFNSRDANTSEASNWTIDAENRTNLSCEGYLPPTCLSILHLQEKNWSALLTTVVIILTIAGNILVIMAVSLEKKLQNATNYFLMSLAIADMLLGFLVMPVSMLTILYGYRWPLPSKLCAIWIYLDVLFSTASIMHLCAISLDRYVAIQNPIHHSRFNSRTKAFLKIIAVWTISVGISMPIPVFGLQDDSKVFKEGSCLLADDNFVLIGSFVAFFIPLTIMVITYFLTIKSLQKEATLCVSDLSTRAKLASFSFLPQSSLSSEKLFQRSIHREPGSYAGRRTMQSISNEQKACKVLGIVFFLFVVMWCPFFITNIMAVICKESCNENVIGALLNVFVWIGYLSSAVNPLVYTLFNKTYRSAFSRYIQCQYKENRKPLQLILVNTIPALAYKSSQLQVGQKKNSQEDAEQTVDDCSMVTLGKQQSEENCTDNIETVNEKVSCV

Compound	Ki
COc1ccc2[nH]cc(C3CCN(CCCN4C(=O)CC(c5c[nH]c6ccccc56)C4=O)CC3)c2c1 (racemic)	11600 nM

target: Sodium-dependent serotonin transporter (Rattus norvegicus, UniProt P31652); test: Displacement of [3H]-citalopram from SERT in rat cerebral cortex after 1 hr by liquid scintillation counting analysis; type: tissue-based
Sequence (P31652 whole entry): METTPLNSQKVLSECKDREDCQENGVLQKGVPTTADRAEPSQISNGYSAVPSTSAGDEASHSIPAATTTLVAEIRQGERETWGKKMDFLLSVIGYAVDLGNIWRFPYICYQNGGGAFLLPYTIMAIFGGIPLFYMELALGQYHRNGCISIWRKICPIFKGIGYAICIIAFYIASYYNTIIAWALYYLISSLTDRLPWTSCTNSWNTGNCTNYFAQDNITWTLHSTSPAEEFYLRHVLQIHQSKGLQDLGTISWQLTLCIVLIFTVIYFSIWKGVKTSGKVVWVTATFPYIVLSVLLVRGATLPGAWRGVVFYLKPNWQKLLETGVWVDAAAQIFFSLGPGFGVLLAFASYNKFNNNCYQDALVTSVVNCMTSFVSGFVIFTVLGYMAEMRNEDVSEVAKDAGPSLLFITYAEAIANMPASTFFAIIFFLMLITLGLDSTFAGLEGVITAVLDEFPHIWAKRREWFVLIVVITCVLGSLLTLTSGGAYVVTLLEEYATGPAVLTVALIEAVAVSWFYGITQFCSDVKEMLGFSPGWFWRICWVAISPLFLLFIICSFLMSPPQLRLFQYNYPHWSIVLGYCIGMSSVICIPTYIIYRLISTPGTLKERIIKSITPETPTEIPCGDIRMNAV

Compound	Ki
COc1ccc2[nH]cc(C3CCN(CCCN4C(=O)CC(c5c[nH]c6ccccc56)C4=O)CC3)c2c1 (racemic)	221 nM
O=C1CC(c2c[nH]c3ccccc23)C(=O)N1CCCCN1CC=C(c2c[nH]c3ccccc23)CC1 (racemic)	11.3 nM
O=C1CC(c2c[nH]c3ccccc23)C(=O)N1CCCCN1CC=C(c2c[nH]c3ccc(F)cc23)CC1 (racemic)	20 nM
COc1ccc2[nH]cc(C3=CCN(CCCCN4C(=O)CC(c5c[nH]c6ccccc56)C4=O)CC3)c2c1 (racemic)	46.2 nM
O=C1CC(c2c[nH]c3ccccc23)C(=O)N1CCCCN1CCC(c2c[nH]c3ccccc23)CC1 (racemic)	5.7 nM

target: T1, 5-hydroxytryptamine receptor 1A (Rattus norvegicus, UniProt P19327); test: Displacement of [3H]-8-OH-DPAT from 5HT1A receptor in rat hippocampal membranes after 20 mins; type: cell membranes, Hippocampus, Membrane
T1 sequence (P19327 whole entry): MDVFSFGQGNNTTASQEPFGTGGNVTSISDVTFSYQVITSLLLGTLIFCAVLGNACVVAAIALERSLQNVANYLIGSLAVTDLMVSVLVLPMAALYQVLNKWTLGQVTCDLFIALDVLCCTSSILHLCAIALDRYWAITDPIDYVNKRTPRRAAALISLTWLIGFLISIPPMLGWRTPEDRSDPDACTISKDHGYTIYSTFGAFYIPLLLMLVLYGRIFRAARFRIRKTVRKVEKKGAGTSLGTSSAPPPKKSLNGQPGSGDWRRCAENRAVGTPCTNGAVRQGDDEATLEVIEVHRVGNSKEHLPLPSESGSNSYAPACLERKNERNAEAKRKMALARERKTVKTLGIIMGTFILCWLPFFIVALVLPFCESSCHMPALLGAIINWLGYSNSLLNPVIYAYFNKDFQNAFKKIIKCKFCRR

Compound	Ki
COc1ccc2[nH]cc(C3CCN(CCCN4C(=O)CC(c5c[nH]c6ccccc56)C4=O)CC3)c2c1 (racemic)	32.6 nM
O=C1CC(c2c[nH]c3ccccc23)C(=O)N1CCCCN1CC=C(c2c[nH]c3ccccc23)CC1 (racemic)	12.5 nM
O=C1CC(c2c[nH]c3ccccc23)C(=O)N1CCCCN1CC=C(c2c[nH]c3ccc(F)cc23)CC1 (racemic)	17.6 nM
COc1ccc2[nH]cc(C3=CCN(CCCCN4C(=O)CC(c5c[nH]c6ccccc56)C4=O)CC3)c2c1 (racemic)	3.2 nM
O=C1CC(c2c[nH]c3ccccc23)C(=O)N1CCCCN1CCC(c2c[nH]c3ccccc23)CC1 (racemic)	15.7 nM
